According to patent US12257264B2, “Combination therapy for HIV with adenosine derivative and capsid inhibitors” (Brii Biosciences, Inc., priority 2021, dated 2025):
“And” between values parts separate entries of the source, which are not always exact repeats. Identical values can stand only once.

Experiment: Plasma exposures following IV infusion alone or in combination to Sprague-Dawley rats
Details: for Lenacapavir Concentrations in Rat Plasma When Dosed with Prodrug formula 4-A: Lenacapavir IV infusion 1.0 mg/kg with Prodrug formula 4-A
Experimental: The pharmacokinetics of EFdA and prodrug formula 4-A, as well as lenacapavir were studied in rats after IV infusion administration alone or in combination at a dose of 1.0 mg/kg each.
Formulations: The prodrugs and lenacapavir were formulated alone or in combination as solutions at 1.0 mg/mL each in 20% […], 10% Solutol aqueous solution within 0.5 hour prior to dose.
Dose Administration and Sample Collection: The in-life phase of this study was conducted at the WuXi Apptec (WuXi) at Shanghai, China in accordance with the WuXi Institutional Animal Care and Use Committee (IACUC) standard animal procedures along with the IACUC guidelines that are in compliance with the Animal Welfare Act, the Guide for the Care and Use of Laboratory Animals. and was approved by the IACUA Committee. Male Sprague-Dawley rats (0.262+/−0.019 kg) were used for the studies. Each drug was administered as a single dose by 30-min IV infusion (1 ml/kg) alone or in combination. Plasma samples were collected at 0 (pre-dose), 5, 10, 15 and 30 min, 1, 2, 4, 7, 12 and 24 h post-dose. Blood (approximately 0.1 mL) was processed immediately for plasma by centrifugation at 3,200 g at 4° C. for 10 min within half an hour of collection. Plasma samples were frozen and maintained at −70° C. until analyzed. To stabilize the prodrug at the sample collection and subsequent analysis, the following stabilizing reagents were added to the blood collection K2EDTA tubes on wet ice prior to sample collection: for each 100 mL of blood, 10 mL of premade inhibitor cocktail consists of 600 mM Citric Acid, 400 mM PMSF, 400 mM NaF, and 400 mM Dichlorvos.
Determination of EFdA and Prodrugs in plasma: Briefly, plasma (20 μL) was mixed with 100 l acetonitrile to precipitate protein. Consistent with sample collection procedure, the same cocktail protocol was also added to stabilize the prodrug in the standard and QC samples.
Bioanalysis: A Sciex API-6500 Plus triplequadrupole mass spectrometer coupled with a Waters Acquity UPLC system (Framingham, MA 01701) was used for quantitative analysis of plasma samples. The column was a Waters HSS T3 column (2.1×50 mm, 1.8 micrometer). The mobile phases used were: A, 0.1% formic acid in water; B, 0.1% formic acid in acetonitrile. For the analysis of EFdA and prodrugs in plasma, the flow rate was 0.6 mL/min with a total run time of 2.0 min. […] Detection of the prodrug and EFdA were achieved using positive ion electrospray mass spectroscopic mode using unit resolution mode. Multiple reaction monitoring (MRM) modes were used to quantify both prodrug and EFdA, e.g. the MRM transition for EFdA was 294.0-154.2 Da, and the transition for prodrug 4-A was 449.3-164.9 Da. For the analysis of lenacapavir in plasma, the flow rate was 0.7 mL/min with a total run time of 1.5 min. The HPLC gradient was initiated at 95% A/5% B for 0.50 min, followed by linear gradient increase to […] over the next 0.2 min; the gradient was subsequently maintained at 100% of mobile B over the next 0.7 min before ramping down to 95% mobile phase A within the following 0.1 min. Detection of lenacapavir was achieved using positive ion electrospray mass spectroscopic mode using unit resolution mode. Multiple reaction monitoring (MRM) modes were used to quantify lenacapavir, e.g. the MRM transition for lenacapavir was 968.1-869.4 Da. Peak areas were integrated by the Sciex program Analyst®, version 1.6.3, operating on a Windows 7 computer where concentrations were determined by a weighted (1/x2) linear regression of peak area ratios (peak area of EFdA/peak area of corresponding IS) versus the nominal concentrations of the plasma calibration standards. Calculations were performed on unrounded numbers. Overall, Analyst® determined the precision and accuracy for the calibration standards and QC samples.

Compound: CC(C)(C#Cc1ccc(-c2ccc(Cl)c3c(NS(C)(=O)=O)nn(CC(F)(F)F)c23)c([C@H](Cc2cc(F)cc(F)c2)NC(=O)Cn2nc(C(F)(F)F)c3c2C(F)(F)[C@@H]2C[C@H]32)n1)S(C)(=O)=O [Lenacapavir, reference compound]
- Lenacapavir Concentrations in Rat Plasma When Dosed Alone (Lenacapavir IV infusion 1.0 mg/kg alone, 0.0830 hrs, individual animals): 485 ng/mL and 603 ng/mL and 667 ng/mL
- Lenacapavir Concentrations in Rat Plasma When Dosed Alone (Lenacapavir IV infusion 1.0 mg/kg alone, 0.167 hrs, individual animals): 845 ng/mL and 682 ng/mL and 734 ng/mL
- Lenacapavir Concentrations in Rat Plasma When Dosed Alone (Lenacapavir IV infusion 1.0 mg/kg alone, 0.250 hrs, individual animals): 810 ng/mL and 801 ng/mL and 894 ng/mL
- Lenacapavir Concentrations in Rat Plasma When Dosed Alone (Lenacapavir IV infusion 1.0 mg/kg alone, 0.500 hrs, individual animals): 612 ng/mL and 580 ng/mL and 984 ng/mL
- Lenacapavir Concentrations in Rat Plasma When Dosed Alone (Lenacapavir IV infusion 1.0 mg/kg alone, 1.00 hrs, individual animals): 166 ng/mL and 222 ng/mL and 240 ng/mL
- Lenacapavir Concentrations in Rat Plasma When Dosed Alone (Lenacapavir IV infusion 1.0 mg/kg alone, 2.00 hrs, individual animals): 104 ng/mL and 149 ng/mL and 164 ng/mL
- Lenacapavir Concentrations in Rat Plasma When Dosed Alone (Lenacapavir IV infusion 1.0 mg/kg alone, 4.00 hrs, individual animals): 102 ng/mL and 157 ng/mL and 195 ng/mL
- Lenacapavir Concentrations in Rat Plasma When Dosed Alone (Lenacapavir IV infusion 1.0 mg/kg alone, 7.00 hrs, individual animals): 185 ng/mL and 84.6 ng/mL and 141 ng/mL and 142 ng/mL
- Lenacapavir Concentrations in Rat Plasma When Dosed Alone (Lenacapavir IV infusion 1.0 mg/kg alone, 12.0 hrs, individual animals): 79.4 ng/mL and 106 ng/mL and 139 ng/mL
- Lenacapavir Concentrations in Rat Plasma When Dosed Alone (Lenacapavir IV infusion 1.0 mg/kg alone, 24.0 hrs, individual animals): 123 ng/mL and 141 ng/mL and 139 ng/mL
- Lenacapavir Concentrations in Rat Plasma When Dosed Alone (Lenacapavir IV infusion 1.0 mg/kg alone, 72.0 hrs, individual animals): 51.3 ng/mL and 59.7 ng/mL and 57.2 ng/mL and 110 ng/mL
- Lenacapavir Concentrations in Rat Plasma When Dosed with Prodrug formula 4-A (0.0830 hrs, individual animals): 460 ng/mL and 391 ng/mL and 314 ng/mL
- Lenacapavir Concentrations in Rat Plasma When Dosed with Prodrug formula 4-A (0.167 hrs, individual animals): 479 ng/mL and 589 ng/mL and 415 ng/mL
- Lenacapavir Concentrations in Rat Plasma When Dosed with Prodrug formula 4-A (0.250 hrs, individual animals): 623 ng/mL and 664 ng/mL and 375 ng/mL
- Lenacapavir Concentrations in Rat Plasma When Dosed with Prodrug formula 4-A (0.500 hrs, individual animals): 643 ng/mL and 714 ng/mL and 448 ng/mL
- Lenacapavir Concentrations in Rat Plasma When Dosed with Prodrug formula 4-A (1.00 hrs, individual animals): 170 ng/mL (2×) and 107 ng/mL
- Lenacapavir Concentrations in Rat Plasma When Dosed with Prodrug formula 4-A (2.00 hrs, individual animals): 135 ng/mL and 105 ng/mL and 94.7 ng/mL
- Lenacapavir Concentrations in Rat Plasma When Dosed with Prodrug formula 4-A (4.00 hrs, individual animals): 93.1 ng/mL and 101 ng/mL and 80.9 ng/mL
- Lenacapavir Concentrations in Rat Plasma When Dosed with Prodrug formula 4-A (7.00 hrs, individual animals): 140 ng/mL and 101 ng/mL and 72.3 ng/mL and 58.8 ng/mL
- Lenacapavir Concentrations in Rat Plasma When Dosed with Prodrug formula 4-A (12.0 hrs, individual animals): 139 ng/mL and 137 ng/mL and 158 ng/mL and 78.6 ng/mL
- Lenacapavir Concentrations in Rat Plasma When Dosed with Prodrug formula 4-A (24.0 hrs, individual animals): 129 ng/mL and 164 ng/mL and 176 ng/mL and 62.5 ng/mL
- Lenacapavir Concentrations in Rat Plasma When Dosed with Prodrug formula 4-A (72.0 hrs, individual animals): 40.1 ng/mL and 97.8 ng/mL and 97.2 ng/mL and 98.0 ng/mL
- concentration at 48 h (male, Sprague-Dawley, rat, in vivo, 1 mg/kg, Lenacapavir Concentrations in Rat Plasma When Dosed Alone): 107 ng/mL
- concentration at 0.083 h (male, Sprague-Dawley, rat, in vivo, 1 mg/kg, Lenacapavir Concentrations in Rat Plasma When Dosed Alone, Lenacapavir IV infusion 1.0 mg/kg alone, 0.0830 hrs, Mean): 612 ng/mL
- concentration at 0.083 h (male, Sprague-Dawley, rat, in vivo, 1 mg/kg, Lenacapavir Concentrations in Rat Plasma When Dosed Alone, Lenacapavir IV infusion 1.0 mg/kg alone, 0.0830 hrs, individual animals): 692 ng/mL
- concentration at 0.167 h (male, Sprague-Dawley, rat, in vivo, 1 mg/kg, Lenacapavir Concentrations in Rat Plasma When Dosed Alone, Lenacapavir IV infusion 1.0 mg/kg alone, 0.167 hrs, Mean): 739 ng/mL
- concentration at 0.167 h (male, Sprague-Dawley, rat, in vivo, 1 mg/kg, Lenacapavir Concentrations in Rat Plasma When Dosed Alone, Lenacapavir IV infusion 1.0 mg/kg alone, 0.167 hrs, individual animals): 694 ng/mL
- concentration at 0.25 h (male, Sprague-Dawley, rat, in vivo, 1 mg/kg, Lenacapavir Concentrations in Rat Plasma When Dosed Alone, Lenacapavir IV infusion 1.0 mg/kg alone, 0.250 hrs, Mean): 825 ng/mL
